Experimental data as given in DBAASP.
Converted amounts (≈) assume the structure as drawn.

What was measured:
Experiment in all cases: ≥ marks a high value that may be exact or a test limit, other limits are often not marked, values filed in µg/mL are converted to µM
[1] = tested on: Enterobacter cloacae BCRC 10401
[2] = tested on: Klebsiella oxytoca BCRC 13985
[3] = tested on: Klebsiella aerogenes BCRC 10370
[4] = tested on: Staphylococcus aureus BCRC 10780
[5] = tested on: Vibrio alginolyticus BCRC 12829
[6] = tested on: Listeria monocytogenes BCRC 14845
Lactococcus garvieae = tested on: Lactococcus garvieae
Vibrio harveyi = tested on: Vibrio harveyi
[7] = tested on: Escherichia coli BCRC 10675
Streptococcus iniae = tested on: Streptococcus iniae
[8] = tested on: Vibrio anguillarum serotype O1
[9] = tested on: Staphylococcus aureus BCRC 10781
[10] = tested on: Vibrio parahaemolyticus BCRC 10806
[11] = tested on: Yersinia enterocolitica BCRC 13999
Vibrio alginolyticus = tested on: Vibrio alginolyticus
[12] = tested on: Streptococcus equinus BCRC 14729
[13] = tested on: Pseudomonas aeruginosa BCRC 10944
Vibrio parahaemolyticus = tested on: Vibrio parahaemolyticus
[14] = tested on: Staphylococcus xylosus BCRC 12930
[15] = tested on: Staphylococcus epidermidis ATCC 12228
[16] = tested on: Candida albicans ATCC 36232
[17] = tested on: Corynebacterium diphtheriae ATCC 8024
[18] = tested on: Shigella flexneri ATCC 203
[19] = tested on: Staphylococcus aureus ATCC 6538
[20] = tested on: Pseudomonas aeruginosa ATCC 9027
[21] = tested on: Escherichia coli ATCC 2592
[22] = tested on: Micrococcus luteus ATCC 9341
[23] = tested on: Bacillus subtilis ATCC 6633
Staphylococcus aureus = tested on: Staphylococcus aureus
[24] = tested on: Escherichia coli ATCC 25922
[25] = tested on: Escherichia coli O26:H- CB6418
[26] = tested on: Escherichia coli AX-109-2-3
[27] = tested on: Staphylococcus epidermidis RP62A
Escherichia coli U7794 = tested on: Escherichia coli U7794
[28] = tested on: Escherichia coli 0152 EIEC1
[29] = tested on: Escherichia coli AX-128-3-3
[30] = tested on: Escherichia coli 0143 EIEC7
[31] = tested on: Escherichia coli 0112 EIEC27
[32] = tested on: Escherichia coli 0164 EIEC6
[33] = tested on: Escherichia coli O157:H7 CB6392
[34] = tested on: Escherichia coli O26:H11 3
[35] = tested on: Escherichia coli ATCC 35218
Escherichia coli = tested on: Escherichia coli
[36] = tested on: Klebsiella pneumoniae KK3 9904
[37] = tested on: Proteus mirabilis ATCC 25933
[38] = tested on: Escherichia coli 0112 EIEC26
[39] = tested on: Escherichia coli O6:K15:H31 536
[40] = tested on: Staphylococcus aureus NCTC 8325
[41] = tested on: Escherichia coli O157:H7 734/94
[42] = tested on: Pseudomonas aeruginosa ATCC 27853
[43] = tested on: Escherichia coli O157:H7 30328
[44] = tested on: Enterobacter cloacae NHTCC 53001
[45] = tested on: Escherichia coli AX-054-1-3
[46] = tested on: Escherichia coli AX-100-3-1
Escherichia coli U7103 = tested on: Escherichia coli U7103
[47] = tested on: Enterococcus faecalis ATCC 29212
Candida albicans = tested on: Candida albicans
[48] = tested on: Escherichia coli O157:H7 282

CC[C@H](C)[C@H](NC(=O)[C@@H](NC(=O)[C@H](Cc1ccccc1)NC(=O)[C@H](Cc1ccc(O)cc1)NC(=O)[C@H](CCCCN)NC(=O)[C@H](CCCCN)NC(=O)[C@H](CC(C)C)NC(=O)[C@H](C)NC(=O)[C@H](CC(N)=O)NC(=O)[C@H](C)NC(=O)CN)[C@@H](C)O)C(=O)N[C@@H](CC(C)C)C(=O)N[C@@H](CCCCN)C(=O)N[C@@H](CCCCN)C(=O)N[C@@H](Cc1ccccc1)C(=O)N[C@@H](Cc1ccccc1)C(=O)N[C@@H](CCCCN)C(=O)N[C@@H](CC(C)C)C(=O)N[C@@H](C)C(=O)N[C@@H](Cc1c[nH]c2ccccc12)C(=O)O [GANALKKYFTILKKFFKLAW]
MIC [1]: 3.35 µM (≈ 8 µg/mL) | MIC [2]: 26.8 µM (≈ 64 µg/mL) | MIC [3]: 6.7 µM (≈ 16 µg/mL) | MIC [4]: 6.7 µM (≈ 16 µg/mL) | MIC [5]: 26.8 µM (≈ 64 µg/mL) | MIC [6]: 6.7 µM (≈ 16 µg/mL) | MIC (Lactococcus garvieae): 26.8 µM (≈ 64 µg/mL) | MIC (Vibrio harveyi): 1.68 µM (≈ 4 µg/mL) | MIC [7]: 3.35 µM (≈ 8 µg/mL) | MIC (Streptococcus iniae): 26.8 µM (≈ 64 µg/mL) | MIC [8]: 6.7 µM (≈ 16 µg/mL) | MIC [9]: 6.7 µM (≈ 16 µg/mL) | MIC [10]: 3.35 µM (≈ 8 µg/mL) | MIC [11]: 13.4 µM (≈ 32 µg/mL) | MIC (Vibrio alginolyticus): 3.35 µM (≈ 8 µg/mL) | MIC [12]: ≥ 53.6 µM | MIC [13]: 6.7 µM (≈ 16 µg/mL) | MIC (Vibrio parahaemolyticus): 6.7 µM (≈ 16 µg/mL) | MIC [14]: 6.7 µM (≈ 16 µg/mL)

CC(C)[C@H](NC(=O)[C@H](CS)NC(=O)[C@@H](NC(=O)[C@H](CCCN=C(N)N)NC(=O)[C@H](CCCCN)NC(=O)CNC(=O)[C@H](CC(N)=O)NC(=O)[C@H](CS)NC(=O)[C@@H](N)Cc1ccc(O)cc1)C(C)C)C(=O)N[C@@H](CS)C(=O)N[C@@H](CCCN=C(N)N)C(N)=O [YCNGKRVCVCR]
MIC [15]: 11.5 µM (≈ 15 µg/mL) | MIC [16]: 11.5 µM (≈ 15 µg/mL) | MIC [17]: 5.77 µM (≈ 7.49 µg/mL) | MIC [18]: 11.5 µM (≈ 15 µg/mL) | MIC [19]: 23.1 µM (≈ 30 µg/mL) | MIC [20]: 38.4 µM (≈ 50 µg/mL) | MIC [21]: 11.5 µM (≈ 15 µg/mL) | MIC [22]: 23.1 µM (≈ 30 µg/mL) | MIC [23]: 11.5 µM (≈ 15 µg/mL) | MIC (Staphylococcus aureus): > 76.9 µM

CC[C@H](C)[C@H](NC(=O)[C@H](CCCCN)NC(=O)[C@H](CS)NC(=O)[C@H](C)NC(=O)[C@@H](NC(=O)[C@H](Cc1ccccc1)NC(=O)CNC(=O)[C@H](CC(C)C)NC(=O)CNC(=O)[C@@H](NC(=O)[C@H](CCCCN)NC(=O)CNC(=O)[C@H](CC(C)C)NC(=O)[C@H](CCCCN)NC(=O)[C@H](CCCCN)NC(=O)[C@H](CC(C)C)NC(=O)[C@@H](NC(=O)[C@H](CO)NC(=O)[C@H](CC(C)C)NC(=O)[C@H](CCSC)NC(=O)[C@@H](N)CO)C(C)C)C(C)C)C(C)C)C(=O)N[C@@H](CC(N)=O)C(=O)N[C@@H](CCCCN)C(=O)N[C@@H](CCC(N)=O)C(=O)N[C@@H](CS)C(=O)O [SMLSVLKKLGKVGLGFVACKINKQC]
MIC [24]: 10 µM (≈ 26.7 µg/mL) | MIC [25]: 5 µM (≈ 13.3 µg/mL) | MIC [26]: 5 µM (≈ 13.3 µg/mL) | MIC [27]: 10 µM (≈ 26.7 µg/mL) | MIC (Escherichia coli U7794): 5 µM (≈ 13.3 µg/mL) | MIC [28]: 5 µM (≈ 13.3 µg/mL) | MIC [29]: 5 µM (≈ 13.3 µg/mL) | MIC [30]: 5 µM (≈ 13.3 µg/mL) | MIC [31]: 5 µM (≈ 13.3 µg/mL) | MIC [32]: 5 µM (≈ 13.3 µg/mL) | MIC [33]: 5 µM (≈ 13.3 µg/mL) | MIC [34]: 2.5 µM (≈ 6.66 µg/mL) | MIC [35]: 5 µM (≈ 13.3 µg/mL) | MIC (Escherichia coli): 5 µM (≈ 13.3 µg/mL) | MIC [36]: 10 µM (≈ 26.7 µg/mL) | MIC [37]: ≥ 100 µM | MIC [38]: 5 µM (≈ 13.3 µg/mL) | MIC [39]: 2.5 µM (≈ 6.66 µg/mL) | MIC [40]: 10 µM (≈ 26.7 µg/mL) | MIC [41]: 5 µM (≈ 13.3 µg/mL) | MIC [42]: 10 µM (≈ 26.7 µg/mL) | MIC [43]: 5 µM (≈ 13.3 µg/mL) | MIC [44]: 10 µM (≈ 26.7 µg/mL) | MIC [45]: 10 µM (≈ 26.7 µg/mL) | MIC [46]: 5 µM (≈ 13.3 µg/mL) | MIC (Escherichia coli U7103): 2.5 µM (≈ 6.66 µg/mL) | MIC [47]: 20 µM (≈ 53.3 µg/mL) | MIC (Candida albicans): 20 µM (≈ 53.3 µg/mL) | MIC (Staphylococcus aureus): 10 µM (≈ 26.7 µg/mL) | MIC [48]: 2.5 µM (≈ 6.66 µg/mL)
